Measured values reported in US9682141B2, “Combination of kinase inhibitors and uses thereof” (INTELLIKINE LLC, priority 2011, dated 2017).

Key:
Format in all cases: biochemical
PI3K β = PI3K β (Homo sapiens (Human), UniProt P42338); test: PI 3-Kinase (human) HTRF assay, p110β/p85α
PI3K γ = PI3K γ (Homo sapiens (Human), UniProt P48736); test: PI 3-Kinase (human) HTRF assay, p110γ; settings: read-out: PI3K γ IC50
PI3K δ = PI3K δ (Homo sapiens (Human), UniProt O00329); test: PI 3-Kinase (human) HTRF assay, p110δ/p85α
Sequence of PI3K δ (O00329 whole entry): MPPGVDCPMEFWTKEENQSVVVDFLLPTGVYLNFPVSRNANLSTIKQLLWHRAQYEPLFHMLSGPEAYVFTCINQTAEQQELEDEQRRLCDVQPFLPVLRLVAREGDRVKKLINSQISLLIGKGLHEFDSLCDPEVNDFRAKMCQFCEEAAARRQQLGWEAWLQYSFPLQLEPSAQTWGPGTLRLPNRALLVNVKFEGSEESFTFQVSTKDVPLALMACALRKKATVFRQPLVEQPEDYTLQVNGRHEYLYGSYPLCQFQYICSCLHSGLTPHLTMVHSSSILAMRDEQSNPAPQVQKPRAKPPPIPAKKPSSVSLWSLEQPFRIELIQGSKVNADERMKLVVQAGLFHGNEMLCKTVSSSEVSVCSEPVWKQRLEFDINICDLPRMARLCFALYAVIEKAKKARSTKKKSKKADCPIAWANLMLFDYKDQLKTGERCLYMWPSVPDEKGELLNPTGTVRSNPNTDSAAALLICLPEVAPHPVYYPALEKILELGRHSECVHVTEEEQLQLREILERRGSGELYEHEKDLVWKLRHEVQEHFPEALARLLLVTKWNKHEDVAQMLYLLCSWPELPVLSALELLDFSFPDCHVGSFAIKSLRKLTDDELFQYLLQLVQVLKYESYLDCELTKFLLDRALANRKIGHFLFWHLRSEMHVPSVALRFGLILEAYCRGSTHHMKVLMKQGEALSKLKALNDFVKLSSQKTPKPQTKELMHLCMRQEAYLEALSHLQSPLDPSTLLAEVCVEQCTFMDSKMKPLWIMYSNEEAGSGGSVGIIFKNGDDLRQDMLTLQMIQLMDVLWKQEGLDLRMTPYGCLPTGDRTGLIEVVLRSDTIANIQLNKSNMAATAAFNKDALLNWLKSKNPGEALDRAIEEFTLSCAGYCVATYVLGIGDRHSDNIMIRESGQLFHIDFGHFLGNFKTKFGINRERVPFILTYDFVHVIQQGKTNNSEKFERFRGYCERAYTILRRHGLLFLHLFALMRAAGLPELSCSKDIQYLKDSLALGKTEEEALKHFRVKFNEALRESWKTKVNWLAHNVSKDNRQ
Sequence of PI3K δ (P27986 whole entry partner): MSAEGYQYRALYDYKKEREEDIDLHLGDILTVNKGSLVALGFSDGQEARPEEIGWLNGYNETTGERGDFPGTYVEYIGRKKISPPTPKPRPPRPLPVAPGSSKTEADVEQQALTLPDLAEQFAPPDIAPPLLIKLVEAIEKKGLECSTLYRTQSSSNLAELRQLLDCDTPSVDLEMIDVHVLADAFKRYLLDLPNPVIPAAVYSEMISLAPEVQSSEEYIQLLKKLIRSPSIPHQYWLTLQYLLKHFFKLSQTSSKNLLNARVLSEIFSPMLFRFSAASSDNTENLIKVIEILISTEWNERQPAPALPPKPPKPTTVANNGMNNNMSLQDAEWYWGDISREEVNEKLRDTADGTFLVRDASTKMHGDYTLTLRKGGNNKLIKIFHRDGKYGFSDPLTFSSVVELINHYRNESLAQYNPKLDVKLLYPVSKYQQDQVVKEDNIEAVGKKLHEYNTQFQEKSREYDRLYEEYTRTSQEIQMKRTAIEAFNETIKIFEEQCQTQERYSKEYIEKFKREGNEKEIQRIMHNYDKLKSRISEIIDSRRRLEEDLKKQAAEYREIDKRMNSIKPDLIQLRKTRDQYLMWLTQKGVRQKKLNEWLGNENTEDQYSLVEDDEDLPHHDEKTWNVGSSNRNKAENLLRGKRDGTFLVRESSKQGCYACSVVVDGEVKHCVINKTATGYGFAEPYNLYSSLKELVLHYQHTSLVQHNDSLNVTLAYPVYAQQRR

PI3K α = PI3K α (Homo sapiens (Human), UniProt P42336); test: PI 3-Kinase (human) HTRF assay, p110α/p85α
Sequence of PI3K α (P42336 whole entry): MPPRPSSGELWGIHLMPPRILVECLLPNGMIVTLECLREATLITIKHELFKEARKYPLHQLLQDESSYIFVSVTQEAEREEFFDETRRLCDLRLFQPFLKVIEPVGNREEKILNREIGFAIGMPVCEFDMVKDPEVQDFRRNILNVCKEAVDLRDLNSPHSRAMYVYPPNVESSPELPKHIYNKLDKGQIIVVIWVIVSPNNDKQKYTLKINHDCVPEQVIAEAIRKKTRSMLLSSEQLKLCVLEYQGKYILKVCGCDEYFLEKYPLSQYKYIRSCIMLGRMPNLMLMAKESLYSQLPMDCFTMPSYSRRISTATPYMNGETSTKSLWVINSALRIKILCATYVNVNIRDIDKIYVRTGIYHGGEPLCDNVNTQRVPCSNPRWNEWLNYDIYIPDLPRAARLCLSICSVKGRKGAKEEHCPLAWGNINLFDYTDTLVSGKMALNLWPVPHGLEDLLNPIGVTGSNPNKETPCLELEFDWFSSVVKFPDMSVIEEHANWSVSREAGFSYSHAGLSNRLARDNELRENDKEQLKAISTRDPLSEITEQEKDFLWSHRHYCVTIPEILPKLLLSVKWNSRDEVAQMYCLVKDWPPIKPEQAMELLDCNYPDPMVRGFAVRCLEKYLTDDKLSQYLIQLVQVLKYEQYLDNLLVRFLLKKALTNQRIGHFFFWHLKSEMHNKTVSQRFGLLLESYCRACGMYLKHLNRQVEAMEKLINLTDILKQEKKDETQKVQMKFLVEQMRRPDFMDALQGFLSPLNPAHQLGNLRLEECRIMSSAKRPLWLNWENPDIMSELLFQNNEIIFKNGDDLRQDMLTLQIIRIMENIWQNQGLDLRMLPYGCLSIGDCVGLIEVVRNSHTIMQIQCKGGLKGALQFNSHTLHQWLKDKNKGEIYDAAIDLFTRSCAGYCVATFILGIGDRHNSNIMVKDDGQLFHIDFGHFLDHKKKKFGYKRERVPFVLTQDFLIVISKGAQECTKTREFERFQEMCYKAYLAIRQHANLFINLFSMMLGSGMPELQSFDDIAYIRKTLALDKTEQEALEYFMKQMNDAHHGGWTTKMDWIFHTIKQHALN
Sequence of PI3K α (P27986 whole entry partner): as the sequence (P27986 whole entry partner) above

Sequence of PI3K γ (P48736 whole entry): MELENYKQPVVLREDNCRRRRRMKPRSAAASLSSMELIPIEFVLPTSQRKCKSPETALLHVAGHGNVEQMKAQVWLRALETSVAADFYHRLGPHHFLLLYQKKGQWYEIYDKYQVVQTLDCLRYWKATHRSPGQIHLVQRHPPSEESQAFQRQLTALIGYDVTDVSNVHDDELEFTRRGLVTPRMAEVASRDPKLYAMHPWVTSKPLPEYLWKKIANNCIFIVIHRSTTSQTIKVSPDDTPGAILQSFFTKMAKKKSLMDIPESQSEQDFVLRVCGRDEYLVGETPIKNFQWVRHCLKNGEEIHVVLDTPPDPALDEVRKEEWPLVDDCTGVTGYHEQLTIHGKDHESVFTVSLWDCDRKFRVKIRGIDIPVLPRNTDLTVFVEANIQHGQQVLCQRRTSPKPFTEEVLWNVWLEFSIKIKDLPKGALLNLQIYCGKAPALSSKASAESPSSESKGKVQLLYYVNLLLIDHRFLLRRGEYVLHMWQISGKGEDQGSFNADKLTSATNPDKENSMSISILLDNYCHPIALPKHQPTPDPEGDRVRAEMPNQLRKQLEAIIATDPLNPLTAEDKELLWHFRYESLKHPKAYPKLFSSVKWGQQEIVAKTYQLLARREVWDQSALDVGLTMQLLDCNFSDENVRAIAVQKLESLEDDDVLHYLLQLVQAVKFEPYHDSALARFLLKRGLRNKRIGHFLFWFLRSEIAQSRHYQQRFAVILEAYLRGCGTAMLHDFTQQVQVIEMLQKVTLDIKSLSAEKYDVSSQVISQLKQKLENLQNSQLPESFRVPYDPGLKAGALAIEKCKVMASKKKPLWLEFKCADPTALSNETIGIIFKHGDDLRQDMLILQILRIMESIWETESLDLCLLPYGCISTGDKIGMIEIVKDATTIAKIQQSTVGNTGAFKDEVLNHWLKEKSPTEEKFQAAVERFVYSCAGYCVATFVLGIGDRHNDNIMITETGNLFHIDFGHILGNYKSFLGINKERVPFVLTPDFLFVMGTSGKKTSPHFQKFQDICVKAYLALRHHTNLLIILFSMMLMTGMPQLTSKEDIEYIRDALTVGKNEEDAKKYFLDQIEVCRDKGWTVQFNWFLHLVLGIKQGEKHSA
Sequence of PI3K β (P42338 whole entry): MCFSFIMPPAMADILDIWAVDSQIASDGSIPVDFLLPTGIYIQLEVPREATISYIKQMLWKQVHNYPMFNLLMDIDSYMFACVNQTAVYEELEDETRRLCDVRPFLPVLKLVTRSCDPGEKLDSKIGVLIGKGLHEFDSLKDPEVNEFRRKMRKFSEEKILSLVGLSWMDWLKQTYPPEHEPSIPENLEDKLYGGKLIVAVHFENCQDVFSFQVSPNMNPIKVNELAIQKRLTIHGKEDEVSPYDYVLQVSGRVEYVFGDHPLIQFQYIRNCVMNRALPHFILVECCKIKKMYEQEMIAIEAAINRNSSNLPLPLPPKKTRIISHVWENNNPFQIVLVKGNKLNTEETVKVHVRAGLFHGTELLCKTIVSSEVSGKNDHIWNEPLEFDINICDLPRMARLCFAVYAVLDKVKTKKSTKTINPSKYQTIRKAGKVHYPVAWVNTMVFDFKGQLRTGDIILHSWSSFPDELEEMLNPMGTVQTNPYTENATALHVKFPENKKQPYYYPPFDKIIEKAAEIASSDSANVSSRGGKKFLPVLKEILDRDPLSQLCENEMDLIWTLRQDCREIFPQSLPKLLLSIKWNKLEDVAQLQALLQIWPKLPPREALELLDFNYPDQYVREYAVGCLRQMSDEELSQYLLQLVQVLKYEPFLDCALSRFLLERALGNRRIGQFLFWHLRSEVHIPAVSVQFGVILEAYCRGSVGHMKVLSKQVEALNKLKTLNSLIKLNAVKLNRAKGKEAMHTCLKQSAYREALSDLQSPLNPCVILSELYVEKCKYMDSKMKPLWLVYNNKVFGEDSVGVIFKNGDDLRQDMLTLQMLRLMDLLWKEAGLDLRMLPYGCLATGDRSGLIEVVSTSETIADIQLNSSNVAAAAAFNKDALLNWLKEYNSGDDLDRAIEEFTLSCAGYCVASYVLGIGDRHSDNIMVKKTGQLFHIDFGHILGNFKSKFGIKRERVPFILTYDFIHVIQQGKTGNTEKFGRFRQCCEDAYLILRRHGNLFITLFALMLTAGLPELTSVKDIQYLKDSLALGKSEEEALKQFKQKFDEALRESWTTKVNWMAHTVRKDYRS
Sequence of PI3K β (P27986 whole entry partner): as the sequence (P27986 whole entry partner) above

Compound | IC50 (PI3K β) [µM] | IC50 (PI3K γ) [µM] | IC50 (PI3K δ) [µM] | IC50 (PI3K α) [µM]
CN1CCC(N(C)c2ncnc3ccc(-c4ccc5oc(N)nc5c4)cc23)CC1 | < 0.1 | < 0.1 | < 1 | < 0.1
CN1CCC(NC(=O)c2cnc3ccc(-c4ccc5oc(N)nc5c4)cn23)CC1 | < 1 | < 1 | < 0.1 | < 0.1
CC(C)N1CCN(C(=O)c2cnc3ccc(-c4ccc5oc(N)nc5c4)cn23)CC1 | < 10 | > 10 | > 10 | < 0.1
Nc1nc2cc(-c3ccc4ncc(C(=O)N5CCN(CC6CC6)CC5)n4c3)ccc2o1 | < 10 | < 10 | < 10 | < 1
Nc1nc2cc(-c3ccc4ncc(C(=O)N5CCC(O)CC5)n4c3)ccc2o1 | > 10 | < 10 | > 10 | < 1
Nc1nc2cc(-c3ccc4ncc(C(=O)N5CCC(N6CCOCC6)CC5)n4c3)ccc2o1 | < 10 | < 10 | < 10 | < 1
CN1CCC(N(C)C(=O)c2cnc3ccc(-c4ccc5oc(N)nc5c4)cn23)CC1 | < 10 | > 10 | < 10 | < 1
CN(CCN1CCOCC1)c1cnc2ccc(-c3ccc4oc(N)nc4c3)cc2n1 | < 10 | < 10 | > 10 | < 1
CS(=O)(=O)CCN1CCC(Nc2cnc3ccc(-c4ccc5oc(N)nc5c4)cc3n2)CC1 | < 10 | < 0.1 | < 1 | < 0.1
CC(C)(C)N1CCN(c2cnc3ccc(-c4ccc5oc(N)nc5c4)cc3n2)CC1 | < 1 | < 1 | < 1 | < 0.1
CCn1cnc2ccc(-c3ccc4oc(N)nc4c3)cc2c1=O | < 10 | < 0.1 | < 10 | < 0.1
Nc1nc2cc(-c3ccc4ncn(CCO)c(=O)c4c3)ccc2o1 | < 10 | < 1 | > 10 | < 0.1
Nc1nc2cc(-c3ccc4ncc(C(=O)N5CCCC5)n4c3)ccc2o1 | < 10 | < 0.1 | < 1 | < 0.1
CCNC(=O)c1cnc2ccc(-c3ccc4oc(N)nc4c3)cn12 | < 1 | < 0.1 | < 1 | < 0.1
Nc1nc2cc(-c3ccc4ncc(C(=O)NCCO)n4c3)ccc2o1 | < 1 | < 0.1 | < 1 | < 0.1
Nc1nc2cc(-c3ccc4ncc(C(=O)Nc5cccnc5)n4c3)ccc2o1 | > 10 | < 0.1 | < 1 | < 0.1
CC(C)(C)N1CCN(C(=O)c2cnc3ccc(-c4ccc5oc(N)nc5c4)cn23)CC1 | < 10 | < 10 | < 10 | < 0.1
NCC(=O)N1CCN(c2cnc3ccc(-c4ccc5oc(N)nc5c4)cc3n2)CC1 | < 1 | < 1 | < 1 | < 0.1
COC(=O)N1CCN(c2cnc3ccc(-c4ccc5oc(N)nc5c4)cc3n2)CC1 | < 1 | < 0.1 | < 10 | < 0.1
Nc1nc2cc(-c3ccc4ncc(N5CCOCC5)nc4n3)ccc2o1 | < 1 | < 0.1 | > 10 | < 0.1

Compound | IC50 (PI3K β) [µM] | IC50 (PI3K γ) [µM] | IC50 (PI3K δ) [µM] | IC50 (PI3K α) [µM]
CN1CCN(c2cnc3ccc(-c4ccc5oc(N)nc5c4)nc3n2)CC1 | < 1 | < 10 | < 10 | < 1
CCOC(=O)N1CCN(c2cnc3ccc(-c4ccc5oc(N)nc5c4)nc3n2)CC1 | < 1 | < 1 | < 1 | < 0.1
Nc1nc2cc(-c3ccc4nc(N5CCOCC5)cnc4n3)ccc2o1 | > 10 | > 10 | > 10 | > 10
CS(=O)(=O)N1CCN(C2CN(c3cnc4ccc(-c5ccc6oc(N)nc6c5)nc4n3)C2)CC1 | > 10 | < 1 | < 10 | < 0.1
CCOC(=O)N1CC=C(c2cnc3ccc(-c4ccc5oc(N)nc5c4)nc3n2)CC1 | < 10 | < 0.1 | < 10 | < 0.1
Nc1nc2cc(-c3ccc4ncc(C5=CCOCC5)nc4n3)ccc2o1 | < 10 | < 0.1 | > 10 | < 0.1
Nc1nc2cc(-c3ccc4ncc(N5CCC(F)(F)CC5)nc4n3)ccc2o1 | > 10 | < 0.1 | > 10 | < 0.1
C[C@@H]1COCCN1c1cnc2ccc(-c3ccc4oc(N)nc4c3)nc2n1 | < 10 | < 0.1 | < 10 | < 0.1
C[C@H]1COCCN1c1cnc2ccc(-c3ccc4oc(N)nc4c3)nc2n1 | < 10 | < 0.1 | > 10 | < 0.1
C[C@@H]1COCCN1C1CN(c2cnc3ccc(-c4ccc5oc(N)nc5c4)nc3n2)C1 | > 10 | < 10 | > 10 | < 10
Nc1nc2cc(-c3ccc4ncc(N5CC(N6C7CCC6COC7)C5)nc4n3)ccc2o1 | > 10 | > 10 | > 10 | < 10
Nc1nc2cc(-c3ccc4ncc(N5CC6CCC(C5)O6)cc4n3)ccc2o1 | > 10 | < 0.1 | > 10 | < 0.1
Nc1nc2cc(-c3ccc4ncc(N5CCC(O)CC5)cc4n3)ccc2o1 | < 10 | < 1 | < 10 | < 0.1
Nc1nc2cc(-c3ccc4ncc(N5CC(N6C7CCC6COC7)C5)cc4n3)ccc2o1 | > 10 | < 1 | < 10 | < 0.1
Nc1nc2cc(-c3ccc4ncc(N5CC(N6CCN(C7CC7)CC6)C5)nc4n3)ccc2o1 | < 10 | < 10 | < 10 | < 0.1
Nc1nc2cc(-c3ccc4ncc(N5CC(N6CCN(C7CC7)CC6)C5)cc4n3)ccc2o1 | < 10 | < 1 | < 10 | < 0.1
CC(C)N1CCN(C2CN(c3cnc4ccc(-c5ccc6oc(N)nc6c5)nc4n3)C2)CC1 | > 10 | > 10 | > 10 | < 10
CN1CCN(c2ccc3ncc(-c4ccc5oc(N)nc5c4)cc3n2)CC1 | < 10 | > 10 | > 10 | < 10
Nc1nc2cc(-c3cnc4ccc(N5C6CCC5COC6)nc4c3)ccc2o1 | > 10 | < 10 | > 10 | < 10
CC(C)(N)C(=O)N1CCN(c2ccc3ncc(-c4ccc5oc(N)nc5c4)cc3n2)CC1 | > 10 | < 10 | > 10 | < 10

The next lines start with the values.

IC50 (PI3K β) [µM] | IC50 (PI3K γ) [µM] | IC50 (PI3K δ) [µM] | IC50 (PI3K α) [µM] | Compound
> 10 | > 10 | > 10 | < 10 | CN1CCN(C(=O)c2cnc3ccc(-c4ccc5oc(N)nc5c4)cc3n2)CC1
> 10 | > 10 | > 10 | < 10 | Nc1nc2cc(-c3ccc4ncc(C(=O)N5CCOCC5)nc4c3)ccc2o1
> 10 | > 10 | > 10 | < 10 | Nc1nc2cc(-c3ccc4ncc(-c5ccc(N6CCOCC6)nc5)nc4c3)ccc2o1
< 1 | > 10 | < 10 | < 0.1 | Nc1nc2cc(-c3ccc4ncc(N5CCC(N)CC5)nc4c3)ccc2o1
< 0.1 | < 1 | < 0.1 | < 0.1 | CN(C)C1CCN(c2cnc3ccc(-c4ccc5oc(N)nc5c4)cc3n2)CC1
< 1 | < 0.1 | < 10 | < 0.1 | CC1CN(c2cnc3ccc(-c4ccc5oc(N)nc5c4)cc3n2)CCO1 (stereo not shown)
< 1 | < 0.1 | < 10 | < 0.1 | Cc1nccn1-c1cnc2ccc(-c3ccc4oc(N)nc4c3)cc2n1
> 10 | < 10 | > 10 | < 0.1 | Nc1nc2cc(-c3ccc4ncc(N5CCCCC5)nc4c3)ccc2o1
< 1 | < 0.1 | < 1 | < 0.1 | Nc1nc2cc(-c3ccc4ncc(N5CCCC5)nc4c3)ccc2o1
> 10 | < 1 | > 10 | < 0.1 | Cc1cn(-c2cnc3ccc(-c4ccc5oc(N)nc5c4)cc3n2)cn1
< 0.1 | < 1 | < 1 | < 0.1 | C[C@H]1CN(c2cnc3ccc(-c4ccc5oc(N)nc5c4)cc3n2)CCN1
< 1 | < 10 | < 10 | < 0.1 | C[C@@H]1CN(c2cnc3ccc(-c4ccc5oc(N)nc5c4)cc3n2)CCN1
> 10 | > 10 | > 10 | < 1 | Nc1nc2cc(-c3ccc4ncc(-c5ccccc5)nc4c3)ccc2o1
> 10 | > 10 | > 10 | < 1 | Cc1ncccc1-c1cnc2ccc(-c3ccc4oc(N)nc4c3)cc2n1
> 10 | < 0.1 | > 10 | < 0.1 | Cc1ccc(-c2cnc3ccc(-c4ccc5oc(N)nc5c4)cc3n2)cn1
< 10 | < 0.1 | > 10 | < 1 | Nc1nc2cc(-c3ccc4ncc(-c5ccccn5)nc4c3)ccc2o1
< 10 | < 1 | > 10 | < 1 | Nc1nc2cc(-c3ccc4ncc(-c5cccnc5)nc4n3)ccc2o1
> 10 | < 10 | > 10 | < 10 | Nc1nc2cc(-c3cnc4ccc(N5CCOCC5)nc4c3)ccc2o1
